Laboratory results reported in the NIST ThermoML archive (doi:10.1021/je9008969).
Numbers after ± are expanded uncertainties.

Experiments:
[1] = cn = amount concentration of the nth substance listed, in mol/dm3; conditions: 298.15 K, 101 kPa, Liquid, Alternating current cell with electrodes
[2] = Liquid; Distillation
[3] = mn = molality of the nth substance listed, in mol/kg; conditions: 298.15 K, 101 kPa, Liquid, Alternating current cell with electrodes

CCCC[n+]1ccccc1.[O-][Cl+3]([O-])([O-])[O-] [1-butylpyridinium perchlorate] + CC(=O)CC(C)C
[1]
Conditions | molar conductivity [S·m2/mol]
c1 = 0.0001223 | 0.00753 ± 0.00015
c1 = 0.0001384 | 0.00709 ± 0.00014
c1 = 0.0001791 | 0.00669 ± 0.00013
c1 = 0.0002332 | 0.00627 ± 0.00013
c1 = 0.0003126 | 0.00579 ± 0.00012
c1 = 0.0004224 | 0.00533 ± 0.00011
c1 = 0.0005585 | 0.0049 ± 9.8e-05
c1 = 0.0007544 | 0.00446 ± 8.9e-05
c1 = 0.001004 | 0.00408 ± 8.2e-05
c1 = 0.001345 | 0.00369 ± 7.4e-05
c1 = 0.001798 | 0.00335 ± 6.7e-05
c1 = 0.002419 | 0.00303 ± 6.1e-05
c1 = 0.00324 | 0.00274 ± 5.5e-05
c1 = 0.004348 | 0.00248 ± 5e-05
c1 = 0.005787 | 0.00225 ± 4.5e-05

CCCCCCCCCCCCCCCC[n+]1ccccc1.[O-][Cl+3]([O-])([O-])[O-] [1-hexadecylpyridinium perchlorate] + CC(=O)CC(C)C
[1]
Conditions | molar conductivity [S·m2/mol]
c1 = 9.238e-05 | 0.00688 ± 0.00014
c1 = 0.0001329 | 0.0064 ± 0.00013
c1 = 0.0001691 | 0.00608 ± 0.00012
c1 = 0.0002261 | 0.00565 ± 0.00011
c1 = 0.0002954 | 0.00527 ± 0.00011
c1 = 0.0004138 | 0.0048 ± 9.6e-05
c1 = 0.0005388 | 0.00444 ± 8.9e-05
c1 = 0.0007214 | 0.00406 ± 8.1e-05
c1 = 0.0009671 | 0.0037 ± 7.4e-05
c1 = 0.001303 | 0.00335 ± 6.7e-05
c1 = 0.001719 | 0.00306 ± 6.1e-05
c1 = 0.002318 | 0.00277 ± 5.5e-05
c1 = 0.00312 | 0.0025 ± 5e-05
c1 = 0.00417 | 0.00226 ± 4.5e-05
c1 = 0.005569 | 0.00205 ± 4.1e-05

CC(=O)CC(C)C [4-methylpentan-2-one]
Conditions | Normal boiling temperature [°C]
[2] | 114.20 ± 0.5

CCCCCC[N+](CC)(CC)CC.[O-][Cl+3]([O-])([O-])[O-] [N,N,N-triethyl-1-hexanaminium perchlorate] + CC(=O)CC(C)C
[1]
Conditions | molar conductivity [S·m2/mol]
c1 = 9.437e-05 | 0.00808 ± 0.00016
c1 = 0.0001362 | 0.00766 ± 0.00015
c1 = 0.0001739 | 0.00732 ± 0.00015
c1 = 0.0002195 | 0.00695 ± 0.00014
c1 = 0.0002862 | 0.00655 ± 0.00013
c1 = 0.0003746 | 0.00614 ± 0.00012
c1 = 0.0004856 | 0.00574 ± 0.00012
c1 = 0.0006345 | 0.00534 ± 0.00011
c1 = 0.000817 | 0.00498 ± 0.0001
c1 = 0.001056 | 0.00462 ± 9.2e-05
c1 = 0.001385 | 0.00426 ± 8.5e-05
c1 = 0.00181 | 0.00392 ± 7.8e-05
c1 = 0.002334 | 0.00362 ± 7.2e-05
c1 = 0.003049 | 0.00333 ± 6.7e-05
c1 = 0.003975 | 0.00307 ± 6.1e-05

CCCCCCC[N+](CCCCCCC)(CCCCCCC)CCCCCCC.[O-][Cl+3]([O-])([O-])[O-] [N,N,N-triheptylheptan-1-aminium perchlorate] + CC(=O)CC(C)C
[1]
Conditions | molar conductivity [S·m2/mol]
c1 = 7.179e-05 | 0.00765 ± 0.00015
c1 = 0.0001036 | 0.00729 ± 0.00015
c1 = 0.0001318 | 0.00704 ± 0.00014
c1 = 0.0001594 | 0.00683 ± 0.00014
c1 = 0.0002244 | 0.00639 ± 0.00013
c1 = 0.0002974 | 0.00603 ± 0.00012
c1 = 0.000405 | 0.00563 ± 0.00011
c1 = 0.0005438 | 0.00525 ± 0.00011
c1 = 0.0007266 | 0.00487 ± 9.7e-05
c1 = 0.0009775 | 0.0045 ± 9e-05
c1 = 0.001306 | 0.00414 ± 8.3e-05
c1 = 0.001751 | 0.0038 ± 7.6e-05
c1 = 0.002355 | 0.00348 ± 7e-05
c1 = 0.003149 | 0.00319 ± 6.4e-05
c1 = 0.004208 | 0.00292 ± 5.8e-05

CCCCCCCCCCCCCCCC[N+](C)(C)C.[O-][Cl+3]([O-])([O-])[O-] [N,N,N-trimethyl-1-hexadecanaminium perchlorate] + CC(=O)CC(C)C
[1]
Conditions | molar conductivity [S·m2/mol]
c1 = 0.0001172 | 0.00637 ± 0.00013
c1 = 0.0001513 | 0.006 ± 0.00012
c1 = 0.0002096 | 0.00553 ± 0.00011
c1 = 0.0002636 | 0.00519 ± 0.0001
c1 = 0.0003584 | 0.00476 ± 9.5e-05
c1 = 0.0005071 | 0.00427 ± 8.5e-05
c1 = 0.0006588 | 0.00394 ± 7.9e-05
c1 = 0.0008706 | 0.00359 ± 7.2e-05
c1 = 0.001168 | 0.00326 ± 6.5e-05
c1 = 0.001547 | 0.00295 ± 5.9e-05
c1 = 0.002106 | 0.00265 ± 5.3e-05
c1 = 0.002797 | 0.0024 ± 4.8e-05
c1 = 0.00376 | 0.00216 ± 4.3e-05
c1 = 0.005012 | 0.00194 ± 3.9e-05
c1 = 0.006683 | 0.00175 ± 3.5e-05

CCCCCCCCCCCCCCCCCC[N+](C)(C)C.[O-][Cl+3]([O-])([O-])[O-] [N,N,N-trimethyl-1-octadecanaminium perchlorate] + CC(=O)CC(C)C
[1]
Conditions | molar conductivity [S·m2/mol]
c1 = 0.0001049 | 0.00634 ± 0.00013
c1 = 0.0001371 | 0.00601 ± 0.00012
c1 = 0.0001741 | 0.00568 ± 0.00011
c1 = 0.0002263 | 0.00531 ± 0.00011
c1 = 0.0002892 | 0.00497 ± 9.9e-05
c1 = 0.0003809 | 0.00458 ± 9.2e-05
c1 = 0.0004892 | 0.00425 ± 8.5e-05
c1 = 0.0006311 | 0.00392 ± 7.8e-05
c1 = 0.0008148 | 0.00361 ± 7.2e-05
c1 = 0.001062 | 0.0033 ± 6.6e-05
c1 = 0.001386 | 0.00302 ± 6e-05
c1 = 0.001802 | 0.00276 ± 5.5e-05
c1 = 0.002337 | 0.00251 ± 5e-05
c1 = 0.003032 | 0.00229 ± 4.6e-05

CCCC[N+](CCCC)(CCCC)CCCC.[O-][Cl+3]([O-])([O-])[O-] [tetrabutylammonium perchlorate] + CC(=O)CC(C)C
[1]
Conditions | molar conductivity [S·m2/mol]
c1 = 9.747e-05 | 0.00773 ± 0.00015
c1 = 0.0001341 | 0.00737 ± 0.00015
c1 = 0.0001902 | 0.00693 ± 0.00014
c1 = 0.0002367 | 0.00662 ± 0.00013
c1 = 0.0003186 | 0.00622 ± 0.00012
c1 = 0.0004325 | 0.00577 ± 0.00012
c1 = 0.0005781 | 0.00535 ± 0.00011
c1 = 0.0007683 | 0.00495 ± 9.9e-05
c1 = 0.001016 | 0.00457 ± 9.1e-05
c1 = 0.00138 | 0.00418 ± 8.4e-05
c1 = 0.001839 | 0.00383 ± 7.7e-05
c1 = 0.002457 | 0.00351 ± 7e-05
c1 = 0.003309 | 0.0032 ± 6.4e-05
c1 = 0.004418 | 0.00292 ± 5.8e-05
c1 = 0.005893 | 0.00267 ± 5.3e-05

CC[N+](CC)(CC)CC.[O-][Cl+3]([O-])([O-])[O-] [tetraethylammonium perchlorate] + CC(=O)CC(C)C
[1]
Conditions | molar conductivity [S·m2/mol]
c1 = 1.622e-05 | 0.00917 ± 0.00018
c1 = 2.705e-05 | 0.00898 ± 0.00018
c1 = 3.499e-05 | 0.00888 ± 0.00018
c1 = 4.526e-05 | 0.00874 ± 0.00017
c1 = 5.823e-05 | 0.00852 ± 0.00017
c1 = 7.469e-05 | 0.0083 ± 0.00017
c1 = 9.761e-05 | 0.00812 ± 0.00016

CCCCCC[N+](CCCCCC)(CCCCCC)CCCCCC.[O-][Cl+3]([O-])([O-])[O-] [tetrahexylammonium perchlorate] + CC(=O)CC(C)C
[1]
Conditions | molar conductivity [S·m2/mol]
c1 = 9.876e-05 | 0.00727 ± 0.00015
c1 = 0.0001295 | 0.00705 ± 0.00014
c1 = 0.0001762 | 0.00672 ± 0.00013
c1 = 0.0002207 | 0.00645 ± 0.00013
c1 = 0.0002798 | 0.00613 ± 0.00012
c1 = 0.0003687 | 0.00578 ± 0.00012
c1 = 0.0004788 | 0.00543 ± 0.00011
c1 = 0.0006209 | 0.00509 ± 0.0001
c1 = 0.0008088 | 0.00475 ± 9.5e-05
c1 = 0.001056 | 0.00441 ± 8.8e-05
c1 = 0.00138 | 0.00409 ± 8.2e-05
c1 = 0.001782 | 0.0038 ± 7.6e-05
c1 = 0.002321 | 0.00351 ± 7e-05
c1 = 0.003006 | 0.00324 ± 6.5e-05
c1 = 0.003917 | 0.00299 ± 6e-05

C[N+](C)(C)C.[O-][Cl+3]([O-])([O-])[O-] [tetramethylammonium perchlorate] + CC(=O)CC(C)C
[1]
Conditions | molar conductivity [S·m2/mol]
c1 = 9.338e-06 | 0.0113 ± 0.00023
c1 = 1.196e-05 | 0.0112 ± 0.00022
c1 = 1.53e-05 | 0.0111 ± 0.00022
c1 = 1.98e-05 | 0.0108 ± 0.00021
c1 = 2.582e-05 | 0.0105 ± 0.00021
c1 = 3.276e-05 | 0.0101 ± 0.0002
c1 = 4.292e-05 | 0.00975 ± 0.00019
c1 = 5.528e-05 | 0.00934 ± 0.00019
c1 = 7.008e-05 | 0.00894 ± 0.00018
c1 = 9.231e-05 | 0.00847 ± 0.00017

CCCCC[N+](CCCCC)(CCCCC)CCCCC.[O-][Cl+3]([O-])([O-])[O-] [tetrapentylammonium perchlorate] + CC(=O)CC(C)C
[3]
Conditions | molar conductivity [S·m2/mol]
m1 = 9.66e-05 | 0.00743 ± 0.00015
m1 = 0.0001207 | 0.00719 ± 0.00014
m1 = 0.0001685 | 0.0068 ± 0.00014
m1 = 0.0002146 | 0.00647 ± 0.00013
m1 = 0.0002922 | 0.00606 ± 0.00012
m1 = 0.0004004 | 0.00562 ± 0.00011
m1 = 0.0005296 | 0.00524 ± 0.00011
m1 = 0.0007017 | 0.00487 ± 9.7e-05
m1 = 0.0009021 | 0.00468 ± 9.4e-05
m1 = 0.001262 | 0.00413 ± 8.3e-05
m1 = 0.001674 | 0.0038 ± 7.6e-05
m1 = 0.002257 | 0.00347 ± 6.9e-05
m1 = 0.003014 | 0.00318 ± 6.4e-05
m1 = 0.004036 | 0.0029 ± 5.8e-05
m1 = 0.0054 | 0.00265 ± 5.3e-05
